The record followed here is patent US10898469B2, “Imidazolylamide derivative” (Sumitomo Dainippon Pharma Co., Ltd., priority 2016, dated 2021).

Holding throughout (type): cell-based, human
One assay has as its system FaDu cells. As to the kind of experiment: Inhibition test for sphere-forming ability of cancer cells (Test Example 1), FaDu. Conditions: Homo sapiens, concentration for 50% inhibition of cell proliferation, read-out: IC50 (μmol/L) FaDu (Sphere IC50 value). A digest of the protocol: (§1)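 First, 350-800 cells/well are plated on ultra-low-attachment surfaces in serum-free DMEM/F12 supplemented with B27, 20 ng/mL EGF, 10 ng/mL bFGF and insulin. Next, test compound is added (final DMSO 0.1%). After 4 days, viable cells are quantified by CellTiter-Glo and Sphere IC50 is calculated.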

The test system of assay [1] is HCT-116 cells. Description: Inhibition test for sphere-forming ability of cancer cells (Test Example 1), HCT-116. To be noted: for IC50: HCT-116 cells, concentration for 50% inhibition of cell proliferation, read-out: IC50 (μmol/L) HCT-116 (Sphere IC50 value); for inhibitory effect on the sphere-forming ability of cancer cells: Test Example 1, summary in words, cell line not given (HCT-116, HT-29, FaDu tested). The method in brief: as §1

Assay [2] deals with HT-29 cells. As to the kind of experiment: Inhibition test for sphere-forming ability of cancer cells (Test Example 1), HT-29. To be noted: concentration for 50% inhibition of cell proliferation, read-out: IC50 (μmol/L) HT-29 (Sphere IC50 value). The method in brief:
as §1

The test system of assay [3] is HCT-116 cells. Description: Inhibition test for sphere-forming ability of cancer cells in the presence of BSA (Test Example 2), HCT-116. To be noted: for IC50: HCT-116 cells, in the presence of 5% BSA, cultured 4 days; for inhibitory effect on the sphere-forming ability of cancer cells: Test Example 2, in the presence of 5% BSA, summary in words, cell line not given (HCT-116, HT-29, FaDu tested). The protocol:
(§2) Human colorectal cancer-derived HCT-116 cells, human colon-adenocarcinoma-derived HT-29 cells, and human pharyngeal cancer-derived FaDu cells were available from American Type Culture Collection (ATCC). HCT-116 cells and HT-29 cells were cultured at 37° C. under 5% CO2 using the McCoy's 5a medium containing 10% fetal bovine serum (FBS) and 1% penicillin/streptomycin, and FaDu cells were cultured at 37° C. under 5% CO2 using the MEM medium containing 10% FBS, 1% non-essential amino acid, 1% sodium pyruvate, 5% bovine serum albumin (BSA), and 1% penicillin/streptomycin. HCT-116 cells, HT-29 cells, and FaDu cells were seeded in a 384 Well Black Clear Bottom Ultra-Low Attachment Microplate (Corning Cat. No. 3827) in an amount of 350-800 cells/well using the DMEM/F12 medium containing 2% B27 supplement (GIBCO), 20 ng/mL epidermal growth factor (EGF) (peprotech), 10 ng/mL basic fibroblast growth factor (bFGF) (peprotech), 5 μg/mL insulin (Sigma), 5% bovine serum albumin (BSA), and 1% penicillin/streptomycin. Each test compound was added into each well to adjust the final concentration of DMSO to 0.1%, and the cells were cultured for 4 days. The number of viable cells in each well was then measured with CellTiter-Glo® Luminescent Cell Viability Assay (Promega) to calculate the concentration of each test compound for 50% inhibition of cell proliferation (Sphere IC50 value; μmol/L).
(§3) The experiment of Test Example 2 was performed for each compound of each Example.
(§4) The concentration of each test compound for 50% inhibition of cell proliferation (Sphere IC50 value; μmol/L) is shown in the following Table.

Assay [4] has as its system HT-29 cells. As to the kind of experiment: Inhibition test for sphere-forming ability of cancer cells in the presence of BSA (Test Example 2), HT-29. To be noted: in the presence of 5% BSA, cultured 4 days. The protocol:
as §2, §3, §4

Consider `COc1ccc(/C=C/C(=O)Nc2cn(Cc3cccc(Cl)c3)cn2)cc1OCCO` [Example 33, (2E)-N-[1-(3-chlorobenzyl)-1H-imidazol-4-yl]-3-[3-(2-hydroxyethoxy)-4-methoxyphenyl]prop-2-enamide], for which the IC50 is under 0.01 µmol/L with FaDu cells; 0.06 µmol/L with HCT-116 cells [1] (Homo sapiens); 0.01 µmol/L in the assay on HT-29 cells [2] (Homo sapiens); 590 nM in the assay on HCT-116 cells [3] (Homo sapiens, HCT-116, 96 h). The “inhibitory effect on the sphere-forming ability of cancer cells” value (“inhibitory effect” for short) in the assay with HCT-116 cells [1] and with HCT-116 cells [3] was “particularly potent inhibitory effect” throughout.

With `C=Cc1ncc(C(=O)Nc2cn(Cc3cccc(C(F)(F)F)c3)cn2)cc1OC` [Example 100], the IC50 with HT-29 cells [4] (Homo sapiens, 96 h) was 6330 nM; in the assay on HCT-116 cells [1] (Homo sapiens), 6.63 µmol/L; with HT-29 cells [2] (Homo sapiens), 1.96 µmol/L; in the assay with HCT-116 cells [3] (Homo sapiens, HCT-116, 96 h), 8380 nM.

On to `COc1ccc(C(=O)Nc2cn(Cc3cccc(Cl)c3)c(C)n2)cc1OC` [Example 102], for which the IC50 is 5960 nM in the assay with HT-29 cells [4] (Homo sapiens, 96 h); 7.87 µmol/L in the assay on HCT-116 cells [1] (Homo sapiens); 4.07 µmol/L in the assay with HT-29 cells [2] (Homo sapiens); over 10000 nM in the assay with HCT-116 cells [3] (Homo sapiens, HCT-116, 96 h).

`COC(=O)c1ccc(/C=C/C(=O)Nc2cn(Cc3cccc(C(F)(F)F)c3)cn2)cn1` [Example 131, Methyl 5-[(1E)-3-oxo-3-({1-[3-(trifluoromethyl)benzyl]-1H-imidazol-4-yl}amino)prop-1-en-1-yl]picolinate]: the IC50 in the assay on HT-29 cells [4] (Homo sapiens, 96 h) is 540 nM; in the assay with HCT-116 cells [1] (Homo sapiens), over 10 µmol/L; in the assay on HT-29 cells [2] (Homo sapiens), 8.71 µmol/L; with HCT-116 cells [3] (Homo sapiens, HCT-116, 96 h), 9210 nM.

Take `COC(=O)c1ccc(OCC(=O)Nc2cn(Cc3cc(F)c(F)c(F)c3)cn2)cn1` [Example 132, Methyl 5-(2-oxo-2-{[1-(3,4,5-trifluorobenzyl)-1H-imidazol-4-yl]amino}ethoxy)picolinate]: the IC50 with HT-29 cells [4] (Homo sapiens, 96 h) was 6460 nM; in the assay on HCT-116 cells [1] (Homo sapiens), 8.22 µmol/L; in the assay with HT-29 cells [2] (Homo sapiens), 6.37 µmol/L; with HCT-116 cells [3] (Homo sapiens, HCT-116, 96 h), over 10000 nM.

As to `O=C(Nc1cn(Cc2cccc(Cl)c2)cn1)c1ccc2ncccc2c1` [Example 137], the IC50 was 6130 nM in the assay on HT-29 cells [4], 0.81 µmol/L with HCT-116 cells [1], 0.57 µmol/L in the assay with HT-29 cells [2] and over 10000 nM with HCT-116 cells [3].

With `O=C(Nc1cn(Cc2cccc(Cl)c2)cn1)c1cnc2ccccc2c1` [Example 138], the IC50 in the assay on HT-29 cells [4] was 6140 nM; in the assay on HCT-116 cells [1] it was 0.1 µmol/L; in the assay with HT-29 cells [2], 0.2 µmol/L; in the assay with HCT-116 cells [3] it was over 10000 nM. Also, the “inhibitory effect” value in the assay with HCT-116 cells [1] is listed as “particularly potent inhibitory effect”.

For `O=C(Nc1cn(Cc2cccc(C(F)(F)F)c2)cn1)c1ccncn1` [Example 179], the IC50 in the assay with HT-29 cells [4] was 5760 nM; with HCT-116 cells [1] it was 2.91 µmol/L; in the assay with HT-29 cells [2], 4.65 µmol/L; in the assay on HCT-116 cells [3], 5960 nM.

On to `O=C(Nc1cn(Cc2cccc(C(F)(F)F)c2)cn1)c1cncnc1` [Example 180], for which the IC50 in the assay on HT-29 cells [4] was 4930 nM; in the assay with HCT-116 cells [1], 8.73 µmol/L; with HT-29 cells [2], 0.76 µmol/L; in the assay with HCT-116 cells [3], over 10000 nM.

For `O=C(Nc1cn(Cc2cccc(C(F)(F)F)c2)cn1)c1cnc2ccccc2c1` [Example 181], the IC50 in the assay with HT-29 cells [4] came out at 3310 nM; in the assay with HCT-116 cells [1] it was 0.77 µmol/L; with HT-29 cells [2], 0.19 µmol/L; in the assay on HCT-116 cells [3] it was 8000 nM.

As to `O=C(Nc1cn(Cc2cccc(C(F)(F)F)c2)cn1)c1ccc2ncccc2c1` [Example 183], the IC50 is 6400 nM in the assay on HT-29 cells [4], 0.94 µmol/L with HCT-116 cells [1], 0.29 µmol/L in the assay on HT-29 cells [2] and over 10000 nM in the assay with HCT-116 cells [3].

On to `O=C(Nc1cn(Cc2cccc(C(F)(F)F)c2)cn1)c1ccc2cnccc2c1` [Example 186], for which the IC50 with HT-29 cells [4] was determined as 100 nM; with HCT-116 cells [1] it was 0.08 µmol/L; in the assay on HT-29 cells [2], 0.05 µmol/L; in the assay with HCT-116 cells [3] it was 560 nM. The “inhibitory effect” value with HCT-116 cells [1] and in the assay with HCT-116 cells [3] was “particularly potent inhibitory effect” throughout.

Consider `O=C(Nc1cn(Cc2cccc(C(F)(F)F)c2)cn1)c1cnc2ncccc2c1` [Example 188], for which the IC50 in the assay with HT-29 cells [4] was 850 nM; in the assay with HCT-116 cells [1], 0.72 µmol/L; in the assay with HT-29 cells [2] it was 0.63 µmol/L; in the assay on HCT-116 cells [3] it was 5540 nM.

As to `O=C(Nc1cn(Cc2cc(F)c(F)c(F)c2)cn1)c1ccc2cnccc2c1` [Example 190], the IC50 in the assay on HT-29 cells [4] stood at 60 nM; in the assay with HCT-116 cells [1], 0.06 µmol/L; with HT-29 cells [2] it was 0.06 µmol/L; in the assay on HCT-116 cells [3] it was 270 nM. In addition, the “inhibitory effect” value with HCT-116 cells [1] is listed as “particularly potent inhibitory effect”.

For `O=C(Nc1cn(Cc2cccc(Cl)c2)cn1)c1ccc2cnccc2c1` [Example 191], the IC50 in the assay with HT-29 cells [4] stood at 530 nM; in the assay on HCT-116 cells [1] it was 0.31 µmol/L; in the assay on HT-29 cells [2] it was 0.09 µmol/L; with HCT-116 cells [3], 690 nM. For the same compound, in the assay on HCT-116 cells [1], the “inhibitory effect” value was “particularly potent inhibitory effect”.

Take `O=C(Nc1cn(Cc2cccc(C(F)(F)F)c2)cn1)c1cnc2cnccc2c1` [Example 192]: the IC50 in the assay on HT-29 cells [4] was 70 nM; in the assay on HCT-116 cells [1], 0.05 µmol/L; with HT-29 cells [2], under 0.01 µmol/L; with HCT-116 cells [3], 70 nM. The “inhibitory effect” value with HCT-116 cells [1] and in the assay on HCT-116 cells [3] was “particularly potent inhibitory effect” in each case.

In the case of `O=C(Nc1cn(Cc2cccc(C(F)(F)F)c2)cn1)c1ccc2cnccc2n1` [Example 193], the IC50 amounted to 610 nM in the assay on HT-29 cells [4], 0.07 µmol/L with HCT-116 cells [1], 0.06 µmol/L in the assay on HT-29 cells [2] and 600 nM with HCT-116 cells [3]. Also, the “inhibitory effect” value in the assay on HCT-116 cells [1] is on record as “particularly potent inhibitory effect”.

In the case of `COc1cc(C(=O)Nc2cn(Cc3cccc(C(F)(F)F)c3)cn2)cnc1Cl` [Example 228], the IC50 in the assay with HT-29 cells [4] was 4880 nM; with HCT-116 cells [1] it was 6.39 µmol/L; in the assay on HT-29 cells [2], 4.17 µmol/L; with HCT-116 cells [3], over 10000 nM.

Turning to `CC(=O)Nc1ccc(/C=C/C(=O)Nc2cn(Cc3cccc(C(F)(F)F)c3)cn2)nc1` [Example 230], the IC50 in the assay on HT-29 cells [4] (Homo sapiens, 96 h) is 5840 nM; in the assay on HCT-116 cells [1] (Homo sapiens), 6.02 µmol/L; with HT-29 cells [2] (Homo sapiens), 0.94 µmol/L; in the assay on HCT-116 cells [3] (Homo sapiens, HCT-116, 96 h), over 10000 nM.

In the case of `O=C(/C=C/c1cccnc1)Nc1cn(Cc2cc(F)c(F)c(F)c2)cn1` [Example 231], the IC50 in the assay on HT-29 cells [4] (Homo sapiens, 96 h) turned out to be 520 nM; with HCT-116 cells [1] (Homo sapiens), 0.56 µmol/L; with HT-29 cells [2] (Homo sapiens), 0.07 µmol/L; in the assay with HCT-116 cells [3] (Homo sapiens, HCT-116, 96 h) it was 700 nM. Besides, the “inhibitory effect” value in the assay with HCT-116 cells [1] is “particularly potent inhibitory effect”.

In the case of `Cn1cc(C(=O)Nc2cn(Cc3cccc(C(F)(F)F)c3)cn2)ccc1=O` [Example 242, 1-Methyl-6-oxo-N-{1-[3-(trifluoromethyl)benzyl]-1H-imidazol-4-yl}-1,6-dihydropyridine-3-carboxamide], the IC50 in the assay on FaDu cells was determined as 0.11 µmol/L; with HCT-116 cells [1] (Homo sapiens), 0.38 µmol/L; in the assay on HT-29 cells [2] (Homo sapiens), 0.29 µmol/L; in the assay on HCT-116 cells [3] (Homo sapiens, HCT-116, 96 h), 2140 nM. In addition, in the assay on HCT-116 cells [1], the “inhibitory effect” value is “particularly potent inhibitory effect”.

On to `O=C(Nc1cn(Cc2cccc(C(F)(F)F)c2)cn1)c1ccc(NCCO)nc1` [Example 248, 6-[(2-Hydroxyethyl)amino]-N-{1-[3-(trifluoromethyl)benzyl]-1H-imidazol-4-yl}nicotinamide], for which the IC50 in the assay on HT-29 cells [4] (Homo sapiens, 96 h) is 5130 nM; in the assay with HCT-116 cells [1] (Homo sapiens), 1 µmol/L; in the assay with HT-29 cells [2] (Homo sapiens), 0.83 µmol/L; in the assay on HCT-116 cells [3] (Homo sapiens, HCT-116, 96 h), 6500 nM.
